Laboratory results reported in patent US20220073613A1, “ACTIVATABLE MASKED ANTI-CTLA4 BINDING PROTEINS” (Xilio Development, Inc., priority 2018, published 2022).
Entries after “also recorded” stand apart in the source; their conditions may differ.

Tests used:
[1] = system: 9D9 antibody; experiment: Surface Plasmon Resonance of masking peptide binding to 9D9 antibody; conditions: SPR, reference channel
Protocol: FIGS. 1A and 1B is a series of graphs showing in vitro analyses of anti-CTLA4 antibody occlusion by a masking peptide. Surface plasmon resonance (SPR) was performed to examine A) kinetics and B) affinity between 9D9 antibody (ligand) and masking peptide […] (analyte). Analytes were run in increasing concentrations of 2-fold serial dilutions from 0.1 to 50 μM at 37° C. Reference-subtracted response was plotted. SPR was performed three times and representative traces from one experiment are shown.
Surface Plasmon Resonance was performed on a GE Biacore T200 instrument at 37° C. The 9D9 antibody and isotype control (reference channel) were coupled at 100 RU immobilization level to CM5 chip (GE Healthcare). Peptides were synthesized and diluted into HBS-EP+ running buffer (GE Healthcare). The binding data were analyzed using Biacore Evaluation Software, version 3.0.

[2] = system: MC38 conditioned media; experiment: AMSP-MS kinetic analysis of AK10 peptides, MC38; type: biochemical, mouse; conditions: MC38 serum-free conditioned media
Protocol: (§1) Ten sequences (AK10) shown in Table 19 were analyzed via AMSP-MS. These sequences were slightly modified from the original sequences to generate mass spectrometry-compatible peptides (in some cases adding basic residues to add positive charge) and spacing residues (GG) to produce longer ˜14-mer peptides. The peptides were prepared at a 500 nM final concentration in the AMSP-MS reaction. The AK10 library was also separately analyzed by LC-MS/MS for chemical validation of the peptide species. The AMSP-MS analysis was performed under standard substrate specificity profiling conditions, sampling time points during the reaction incubation at 0, 15, 60, 240 and 1200 min. Peptides were quantified by mass spectrometric label-free quantitation from the MS1 precursor ion peak areas for each peptide species. Enzyme progress curves were modeled in GraphPad Prism software v 8.0 and data were fitted using non-linear least squares fitting to the first order kinetic equation: where Y=percent product formation, Kobs is the observed rate, and t=time. In Michaelis-Menten kinetics, the observed rate Kobs is a function of the enzyme concentration and catalytic efficiency (kcat/KM). In this analysis of an enzyme mixture, Kobs was used to rank product cleavages.

[3] = system: NAT conditioned media; experiment: AMSP-MS kinetic analysis of AK10 peptides, NAT; type: biochemical, human
Protocol: as §1

[4] = system: tumor conditioned media; experiment: AMSP-MS kinetic analysis of AK10 peptides, patient tumor; type: biochemical, human
Protocol: as §1

[5] = system: MB49 tumors; experiment: MB49 murine bladder tumor model, efficacy and pharmacodynamics; set-up: species or system C57/BL6-huCTLA4 mice; conditions: mouse, in vivo
Protocol: Efficacy and pharmacodynamics (PD) of anti-CTLA4 antibodies were assessed using the MB49 murine bladder tumor model. Efficacy was assessed by administering each test antibody (RSV-m control antibody, ipilimumab, Antibody 2-6, Antibody 2-14, and Antibody 2-15) and then assessing tumor volume and body weight. The anti-RSV control antibody contains S239D and I332E mutations (RSV-m control antibody). Peripheral immunophenotyping was also carried out on day 5, which assessed the percentage of CD4+Ki67+ cells and the percentage of CD4+ICOS+ cells in the peripheral blood on day 5 following administration. As used herein, dosing in mg/kg is also referred to as “mpk.” MB49 cells were inoculated subcutaneously into C57/BL6-huCTLA4 mice. Treatment started when the tumors reached approximately 350 mm^3. […]
Pharmacodynamics is assessed by administering antibody to each of five cohorts of mice, with dosing (mg/kg) as shown in Table 16. Immunophenotyping among other readouts are performed in the tumor, liver, spleen, and blood. T cells are assessed by measuring Foxp3+CD25+ cells as a percentage of CD4+ cells, and CD8+ cells are measured as a percentage of CD45+ cells. Cleavage and drug levels in tumors, liver, kidney, spleen, and plasma is also assessed.

In the case of CNLIVEGHC, the “binding to isotype control antibody” value [1] is reported as “did not bind”.

For LSGRSNAMPYDLYHP [AK-09], the “ranking as substrate (relative efficiency)” value [2] was “best substrates” and the “ranking as substrate (relative efficiency)” value [3] was “better performing substrates”.

For MPYDLYHPRQARVVG [AK-10], the “ranking as substrate (relative efficiency)” value [2] was “best substrates” and the “ranking as substrate (relative efficiency)” value [3] was “better performing substrates; also recorded: most efficient NAT substrate”.

For RGGDSGGFMLTGGK [AK-05], the “ranking as substrate (relative efficiency)” value [3] was “weaker substrates”.

In the case of RGGMPYDLYHPGGK [AK-04], the “ranking as substrate (relative efficiency)” value [3] is reported as “better performing substrates” and the “ranking as substrate (relative efficiency)” value [4] is reported as “top cleavages”.

RGGVPLSLYSGGGK [AK-03] was tested, and the “ranking as substrate (relative efficiency)” value [4] was “top cleavages”.

In the case of ipilimumab [reference compound], the “Regulatory T cell depletion and CD8+ T cell activation in the tumor microenvironment” value [5] is reported as “not”.
